Structures can show the parent of a compound that is named as a salt.

Test [1] has as its target T1, σ2 receptor (Rattus norvegicus, UniProt Q5U3Y7).
T1 sequence (Q5U3Y7 1-176): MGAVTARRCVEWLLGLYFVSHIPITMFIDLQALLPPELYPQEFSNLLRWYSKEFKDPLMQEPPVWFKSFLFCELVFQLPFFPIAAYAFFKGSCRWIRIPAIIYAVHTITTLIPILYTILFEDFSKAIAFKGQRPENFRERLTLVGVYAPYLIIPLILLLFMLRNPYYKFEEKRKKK
Briefly: σ2 receptor binding assay, [3H]DTG, rat liver membrane homogenates. The arrangement: conducted using rat liver membrane homogenates; from tissue; host or cells: rat liver membrane homogenates.
Protocol: The compounds were dissolved in DMF, DMSO, or ethanol, and then diluted in 50 mM Tris-HCl buffer containing 150 mM NaCl and 100 mM EDTA at pH 7.4, prior to performing the σ1 and σ2 receptor binding assays.
The incubation time was 2 h at room temperature. Nonspecific binding was determined from samples that contained 10 μM of cold haloperidol. All other procedures were identical to those described for the σ1 receptor binding assay above.
Ki values were calculated using the method of Cheng and Prusoff and are presented as the mean (±1 SEM).

Another test deals with T2, VAChT (Tetronarce californica, UniProt P81721).
T2 construct: using highly purified Torpedo synaptic vesicles; from tissue
T2 sequence (P81721 1-515): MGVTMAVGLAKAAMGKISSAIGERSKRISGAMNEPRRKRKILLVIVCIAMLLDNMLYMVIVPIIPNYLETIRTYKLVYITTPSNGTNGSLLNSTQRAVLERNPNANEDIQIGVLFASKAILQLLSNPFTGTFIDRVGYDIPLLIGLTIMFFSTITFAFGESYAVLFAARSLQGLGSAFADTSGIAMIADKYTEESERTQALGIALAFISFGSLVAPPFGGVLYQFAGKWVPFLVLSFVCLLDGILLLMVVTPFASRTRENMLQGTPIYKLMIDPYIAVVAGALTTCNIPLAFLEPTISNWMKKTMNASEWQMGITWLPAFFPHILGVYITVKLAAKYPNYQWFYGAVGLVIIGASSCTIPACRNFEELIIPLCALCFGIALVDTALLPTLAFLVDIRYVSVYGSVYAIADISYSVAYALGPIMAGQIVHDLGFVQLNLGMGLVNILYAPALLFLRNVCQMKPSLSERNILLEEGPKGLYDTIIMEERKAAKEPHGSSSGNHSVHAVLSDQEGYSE
Nature of the test: biochemical. Format: binding. The conditions noted are these: for VAChT/σ selectivity: in words; for σ1/VAChT: selectivity index Ki (σ1)/Ki (VAChT); for σ2/VAChT: selectivity index Ki (σ2)/Ki (VAChT).

The target in test [2] is T1, σ2 receptor. Nature of the test: σ2 binding of Table 5 compounds. Also noted: species or system guinea pig. The conditions noted are these: read-out: σ2 Ki (nM) ± SEM; Table 6. As for the experimental part: Compounds were tested for VAChT binding using highly purified Torpedo synaptic vesicles. The σ1 and σ2 binding affinities were tested in rat brain and in guinea pig membranes, respectively. Structures and Equilibrium binding constants (Ki) are reported in Table 5 and Table 6, respectively. As in previous studies, we define ligand selectivity in terms of a selectivity index which is calculated as Ki (σ1 or σ2)/Ki (VAChT).
Consequently, we also screened the target compounds for sigma binding to identify selective VAChT ligands from this new structural class of agents.

The mark [3] stands for this setting: Table 4, Ki values of VAChT specific compounds, tissue not given, read-out: Sigma-2 σ1.

For the molecule `Cc1ccc(C(=O)N2CCC(O)C(N3CCC(C(=O)c4ccc(F)cc4)CC3)C2)s1` (stereo not shown) [WW-III-41], on σ2 receptor [1] (setting [3]), the Ki came to 16.4 ± 1.48 µM.
As to “(4′-Hydroxy-1′-(pyridin-4-ylmethyl)-[1,3′-bipiperidin]-4-yl)(4-methoxyphenyl)methanone [Compound 16h]”, the Ki at σ2 receptor [1] (homogenates of rat liver, mean ± SEM, read-out: σ2 (Ki)) was 17.1 ± 3.86 µM.
Consider `Cn1c(C(=O)C2CCN(C3Cc4ccccc4CC3O)CC2)cccc1=O` (stereo not shown) [TZ-4-1-148, 6-(1-(3-Hydroxy-1,2,3,4-tetrahydronaphthalen-2-yl)piperidine-4-carbonyl)-1-methylpyridin-2(1H)-one], for which, on VAChT, the Ki was determined as 0.182 ± 0.0648 µM, the VAChT/σ selectivity result is “poor selectivity”, the σ1/VAChT came out at 11.8 and the σ2/VAChT was determined as 18.3. Moreover, on σ2 receptor [2], the Ki amounted to 3340 ± 127 nM.
Take `COc1ccc(C(=O)C2CCN(C3CN(C(=O)c4cccs4)CCC3O)CC2)cc1` (stereo not shown) [WW-III-21]: the Ki on σ2 receptor [1] (setting [3]) was determined as 6.38 ± 1 µM.
As to `Cn1ccc(C(=O)C2CCN(C3Cc4ccccc4CC3O)CC2)c1` (stereo not shown) [TZ-4-1-114, (1-(3-Hydroxy-1,2,3,4-tetrahydronaphthalen-2-yl)piperidin-4-yl)(1-methyl-1H-pyrrol-3-yl)methanone oxalate], the Ki at σ2 receptor [2] was 7710 ± 1060 nM.
With `O=C(c1cccnc1F)C1CCN(C2Cc3ccccc3CC2O)CC1` (stereo not shown) [TZ-4-1-122, (2-fluoropyridin-3-yl)(1-(3-hydroxy-1,2,3,4-tetrahydronaphthalen-2-yl)piperidin-4-yl)methanone], at VAChT, the Ki amounted to 0.0127 ± 0.00241 µM, the VAChT/σ selectivity entry is “moderate or high”, the σ1/VAChT is listed as 102.2 and the σ2/VAChT turned out to be 277.9. At σ2 receptor [2], the Ki is 3530 ± 331 nM.
As for `O=C(c1cncc(F)c1)C1CCN(C2Cc3ccccc3CC2O)CC1` (stereo not shown) [TZ-4-1-96, (5-Fluoropyridin-3-yl)(1-(3-hydroxy-1,2,3,4-tetrahydronaphthalen-2-yl)piperidin-4-yl)methanone oxalate], at VAChT, the Ki was determined as 0.0101 ± 0.00154 µM, the VAChT/σ selectivity entry is given as “moderate or high”, the σ1/VAChT came to 70.2 and the σ2/VAChT came out at 167.3. In addition, the Ki on σ2 receptor [2] came out at 1690 ± 56 nM.
With `O=C(c1ccc(F)cc1)C1CCN(C2CN(C(=O)c3cccs3)CCC2O)CC1` (stereo not shown) [WW-III-43], the Ki on σ2 receptor [1] (setting [3]) worked out at 4.05 ± 0.244 µM.
Regarding `COc1ccc(C(=O)C2CCN(C3CN(C(=O)c4ccc(C)s4)CCC3O)CC2)cc1` (stereo not shown) [WW-III-17], the Ki at σ2 receptor [1] (setting [3]) was 24.4 ± 3.63 µM.
As to `COc1ccc(C(=O)C2CCN(C3CN(C(=O)c4ccccc4)CCC3O)CC2)cc1` (stereo not shown) [WW-1-67], the Ki at σ2 receptor [1] (setting [3]) amounted to 4.85 ± 0.649 µM.
With `COc1cccnc1C(=O)C1CCN(C2Cc3ccccc3CC2O)CC1` (stereo not shown) [TZ-4-1-92, (1-(3-Hydroxy-1,2,3,4-tetrahydronaphthalen-2-yl)piperidin-4-yl)(3-methoxypyridin-2-yl)methanone oxalate], on VAChT, the Ki is 0.121 ± 0.0292 µM, the VAChT/σ selectivity result was “poor selectivity”, the σ1/VAChT is on record as 173.3 and the σ2/VAChT was 12.9. Moreover, the Ki on σ2 receptor [2] was 1560 ± 63 nM.
For `O=C(c1ccc(F)nc1)C1CCN(C2Cc3ccccc3CC2O)CC1` (stereo not shown) [TZ-4-1-154, (6-fluoropyridin-3-yl)(1-(3-hydroxy-1,2,3,4-tetrahydronaphthalen-2-yl)piperidin-4-yl)methanone oxalate], at VAChT, the Ki turned out to be 0.0261 ± 0.00241 µM, the VAChT/σ selectivity result is “moderate or high”, the σ1/VAChT was 26.2 and the σ2/VAChT was determined as 67.0. In addition, at σ2 receptor [2], the Ki is 1750 ± 93 nM.
On to `COc1ccc(C(=O)C2CCN(C3CN(C(=O)c4ccc(F)cc4)CCC3O)CC2)cc1` (stereo not shown) [WW-1-107], for which the Ki on σ2 receptor [1] (setting [3]) is 2.6 ± 0.363 µM.
In the case of `Cc1ccsc1C(=O)N1CCC(O)C(N2CCC(C(=O)c3ccc(F)cc3)CC2)C1` (stereo not shown) [WW-III-39], at σ2 receptor [1] (setting [3]), the Ki came out at 4.22 ± 0.205 µM.
Take `O=C(c1ccc(F)cc1)C1CCN(C2CN(C(=O)c3ccccc3)CCC2O)CC1` (stereo not shown) [WW-1-39]: the Ki at σ2 receptor [1] (setting [3]) amounted to 3.95 ± 0.278 µM.
On the same count and under the same terms, then `COc1ccc(C(=O)C2CCN(C3CN(C(=O)c4cccnc4)CCC3O)CC2)cc1` (stereo not shown) [WW-III-13], with 24.3 ± 1.91 µM.
Take `COc1ccc(C(=O)N2CCC(O)C(N3CCC(C(=O)c4ccc(F)cc4)CC3)C2)cc1` (stereo not shown) [WW-1-35]: the Ki at σ2 receptor [1] (setting [3]) is over 10 µM.

For the origin of these results see patent US8658131B2, “Compounds comprising 4-benzoylpiperidine as a sigma-1-selective ligand” (Washington University, priority 2010, dated 2014).
